# According to US20200113852A1, “METHODS OF PATIENT SELECTION AND TREATING TRXR- OR PRDX-OVEREXPRESSED CANCERS” (TRIACT THERAPEUTICS, INC., priority 2017, published 2020):
# Read-outs that look alike come from different tables or passages of the source.
# Key:
# HCT116 cells [1] = experiment: Cytotoxicity assay (WST-1 cell viability); format: cell-based, human; conditions: for cytotoxicity: HCT116 without GSH depletion; for IC50: Homo sapiens
# Method: Cell viability following drug treatments was assessed using WST-1 cell proliferation assay (Roche) Briefly, cells were plated into 96-well plates with 8,000 (HCT116) or 20,000 (MDA-MB-453) cells per well and allowed to attach overnight. Cells were then preincubated for 5 h in the presence or absence of 1 mM BSO. […] After 3 h of incubation at 37° C., the amount of formazan dye was quantified by measuring the optical density at 450 nm with a scanning multiwell spectrophotometer (PerkinElmer).
# Cell viability following drug treatments was assessed using WST-1 cell proliferation assay (Roche). Briefly, cells were plated into 96-well plates with 8,000 (HCT116) or 20,000 (MDA-MB-453) cells per well and allowed to attach overnight. Cells were then preincubated for 5 h in the presence or absence of 1 mM BSO. […] After 3 h of incubation at 37° C., the amount of formazan dye was quantified by measuring the optical density at 450 nm with a scanning multiwell spectrophotometer (PerkinElmer).
# rat liver TrxR = rat liver TrxR (Rattus norvegicus, UniProt O89049); experiment: Electron paramagnetic resonance, DEPMPO spin trapping; conditions: 100 μM Iniparib, NADPH, aerobic
# Sequence of rat liver TrxR (O89049 whole entry): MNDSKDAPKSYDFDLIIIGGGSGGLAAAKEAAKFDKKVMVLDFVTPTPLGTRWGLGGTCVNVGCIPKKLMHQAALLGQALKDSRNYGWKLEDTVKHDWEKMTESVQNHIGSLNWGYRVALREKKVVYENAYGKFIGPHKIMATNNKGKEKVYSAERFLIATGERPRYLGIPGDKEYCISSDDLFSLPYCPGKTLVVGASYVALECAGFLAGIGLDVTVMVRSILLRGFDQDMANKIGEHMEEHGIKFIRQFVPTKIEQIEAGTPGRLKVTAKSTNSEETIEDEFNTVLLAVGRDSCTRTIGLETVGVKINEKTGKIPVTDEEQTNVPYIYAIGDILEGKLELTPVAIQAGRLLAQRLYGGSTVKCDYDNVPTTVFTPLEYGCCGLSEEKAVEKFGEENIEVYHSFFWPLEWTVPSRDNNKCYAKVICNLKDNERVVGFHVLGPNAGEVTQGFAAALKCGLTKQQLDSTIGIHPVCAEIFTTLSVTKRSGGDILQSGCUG
# Method: Computer simulations of the spectra were performed using the program written by Rockenbauer and Korecz (25). […] Then the reaction mixture was transferred by aspiration into a gas permeable PTFE tubing (Extruded Sub-Lite-Wall®, inside diameter: 0.635 mm, wall thickness: 0.051 mm, Zeus Industrial Products Ltd., Ireland). The tubing was folded twice in a W-shape and inserted into a 4-mm EPR quartz tube for EPR analysis. […] To confirm the involvement of superoxide in the appearance of the EPR signal, 100 units of superoxide dismutase (SOD) were added to the incubation prior to TrxR addition. For anaerobic experiments, the reaction mixture was immediately transferred into the gas permeable tubing and nitrogen gas was flushed through a septum cap in the sealed EPR quartz tube during the whole experiment.
# TrxR in MDA-MB-453 cells = experiment: Endogenous TrxR activity in cell lysates (DTNB reduction assay); format: cell-based, human; conditions: MDA-MB-453 cells without GSH depletion
# HCT116 cells [2] = experiment: ROS production and video-microscopy (H2DCF); format: cell-based, human; conditions: HCT116 loaded with H2DCF, 100 μM
# Method: HCT116 cells pretreated or not for 20h with 1 mM BSO were loaded with 5 μM 2′,7′ dichloroflurescein diacetate (H2DCF). […] H2DCF fluorescence was excited with a LED light source (490 nm) and emitted light was collected at 520-550 nm. For video, H2DCF-loaded cells were washed with HBSS and kept for measurement in 2 μM H2DCF in HBSS.
# For quantification the MetaMorph® software was used. ROIs were traced on representative cells and integrated fluorescence intensities were estimated. Values correspond to the average intensities of the ROIs and are expressed as the ratio F/FO, where F is the averaged intensity recorded at a given time and FO corresponds to an averaged intensity recorded on images captured before adding the compounds.
# [3] = tested on: Trx, JNK, p38MAPK, PARP in HCT116 cells; experiment: Cell death signaling western blots (Trx oxidation, phospho-JNK, phospho-p38MAPK, cleaved-PARP)
# Method: (§1) Cells extracts were analyzed by SDS-PAGE either under reducing conditions or under non-reducing conditions in the case of Trx blot followed by blots anti-phospho-JNK, anti-phospho-p38MAPK, anti-cleaved-PARP and anti-Trx. Results are representative of three independent experiments.
# (§2) After 2 h at 4° C., lysates were clarified by centrifugation and protein amounts were measured using the BCA assay (Pierce, Thermo scientific).
# (§3) Equal amounts of proteins were resolved by SDS-PAGE under either non-reducing or reducing (5% 2-mercaptoethanol, 20 min at 60° C.) conditions, using 4-20% gels (Novex, Invitrogen), then subjected to semi-dry electrophoretic transfer onto nitrocellulose membranes.
# purified rat liver TrxR = target: T1, purified rat liver TrxR (Rattus norvegicus, UniProt O89049); experiment: In vitro TrxR activity (DTNB reduction assay); format: biochemical; conditions: 100 μM Iniparib, 200 μM NADPH, up to 120 min
# T1 construct: Wild type TrxR purified from rat liver was from Sigma-Aldrich Chemicals; purchased Sigma-Aldrich Chemicals; host or cells: rat liver (tissue-purified)
# T1 sequence (O89049 whole entry): as above
# [4] = tested on: JNK, p38MAPK in MDA-MB-453 cells; experiment: Cell death signaling western blots (phospho-JNK, phospho-p38MAPK); conditions: MDA-MB-453, 100 μM
# Method: as §1, §2, §3
# TrxR2 = target: T2, TrxR2 (Homo sapiens, UniProt Q9NNW7); experiment: Mass spectrometry of immunoprecipitated TrxR2 modified by Iniparib in HCT116 cells; format: cell-based
# T2 construct: TrxR1 and TrxR2 were immunoprecipitated from octylglucoside cell extracts (12 mg proteins); endogenous in cells; host or cells: HCT116 (BSO-pretreated)
# T2 sequence (Q9NNW7 37-524): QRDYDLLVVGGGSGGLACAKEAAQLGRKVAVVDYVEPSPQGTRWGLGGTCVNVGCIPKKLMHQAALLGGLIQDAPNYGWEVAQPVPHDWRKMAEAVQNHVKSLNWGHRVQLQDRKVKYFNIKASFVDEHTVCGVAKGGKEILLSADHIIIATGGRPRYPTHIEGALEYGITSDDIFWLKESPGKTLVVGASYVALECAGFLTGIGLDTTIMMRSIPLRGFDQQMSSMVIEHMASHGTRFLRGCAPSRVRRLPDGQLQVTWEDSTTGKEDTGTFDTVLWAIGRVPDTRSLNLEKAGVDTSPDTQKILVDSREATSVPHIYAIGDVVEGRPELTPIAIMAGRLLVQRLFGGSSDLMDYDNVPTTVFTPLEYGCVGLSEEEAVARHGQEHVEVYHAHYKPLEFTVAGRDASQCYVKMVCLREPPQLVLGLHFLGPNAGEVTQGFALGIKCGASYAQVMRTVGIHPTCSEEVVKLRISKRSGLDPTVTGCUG
# Method: After separation by SDS-PAGE under reducing conditions and PageBlue® protein staining (Thermo scientific), bands of interest were excised, reduced with DTT, alkylated with iodoacetamide and in-gel digested with trypsin (Promega), according to the method of Shevchenko et al. (24). Peptides were extracted with 50 mM ammonium bicarbonate and 50% acetonitrile in 0.2% formic acid and analyzed by Nano LC-MS/MS after partial evaporation in a speed-vac concentrator. LC-MS/MS experiments were performed on an NanoAcquity UPLC (Waters) coupled to a hybrid LTQ Orbitrap Velos mass spectrometer (Thermo Fisher Scientific) equipped with a nanoelectrospray source. Tryptic digests were loaded onto a nanoAcquity UPLC Trap column (Symmetry C18, 5 μm, 180 μm×20 mm, Waters) and washed with 0.2% FA at 20 μl/min for 5 min. Peptides were then eluted on a C18 reverse-phase nanoAcquity column (BEH130 C18, 1.7 μm, 75 μm×250 mm, Waters) with a linear gradient of 7-30% solvent B (H2O/CH3CN/HCOOH, 10:90:0.2, by vol.) for 85 min, 30-90% solvent B for 10 min, and 90% solvent B for 5 min, at a flow rate of 250 nL/min. The mass spectrometer was operated in the data-dependent mode to automatically switch between MS and MS/MS acquisition. Survey full scan MS spectra (m/z 300-1,600) were acquired in the Orbitrap with a resolution of 60,000 at m/z 400. The AGC was set to 1×10^6 with a maximum injection time of 100 ms. The most intense ions (up to 20) were then isolated for fragmentation in the LTQ linear ion trap with normalized collision energy of 28% at the default activation q of 0.25 with an AGC of 5×10^3 and a maximum injection time of 200 ms. The dynamic exclusion time window was set to 80 s. […] The exact parent mass is the 12C isotope ion mass of the most intense isotopic pattern detected on the high resolution Orbitrap MS parallel scan and included in the MS/MS selection window. […]
structure (smiles),measurement,setting,value
"NC(=O)c1ccc(I)c([N+](=O)[O-])c1 [Iniparib, 4-iodo-3-nitrobenzamide]",cytotoxicity,"HCT116 cells [1]; after 24 h, concentrations up to 100 μM",marginal cytotoxicity
same,cytotoxicity,HCT116 cells [1]; up to 100 μM of Iniparib,no cytotoxicity was detected
same,IC50,"HCT116 cells [1]; HCT-116, 24 h, read-out: IC50 (cytotoxicity), HCT116 cells not depleted of GSH, transitory or 24 h exposure",> 100 µM
same,IC50,"HCT116 cells [1]; HCT-116, read-out: IC50 (cytotoxicity), HCT116, GSH depletion (Example 2)",8.2 µM
same,IC50,"HCT116 cells [1]; HCT-116, read-out: IC50 (cytotoxicity), HCT116 after GSH depletion with BSO (Example 1)",8.4 ± 0.5 µM
same,DEPMPO/HOO• adduct signal,rat liver TrxR,five-fold
same,DEPMPO/HO• adduct signal,rat liver TrxR,doubled
same,TrxR reductase activity,TrxR in MDA-MB-453 cells,reductase activity inhibition
same,ROS production,HCT116 cells [2],induced an increase in ROS production
same,"JNK activation, time of occurrence","[3]; GSH-depleted HCT116, 100 μM, persisted until 24 h",6 h
same,p38MAPK and JNK phosphorylation,"[3]; GSH-depleted HCT116, 7 h or 24 h",activation of both p38MAPK and JNK phosphorylation
same,Trx oxidation,"[3]; GSH-depleted HCT116, 7 h or 24 h, 100 μM Iniparib, 1 μM Auranofin, 100 nM Staurosporin",oligomeric/oxidized form of Trx accumulated
same,TrxR reductase activity,purified rat liver TrxR,time-dependent inhibition of its reductase activity
same,"JNK activation, time of peak",[4],10 h
same,TrxR2 with one Iniparib adduct on Sec residue,TrxR2; 1 h,5%
same,TrxR2 with one Iniparib adduct on Sec residue,TrxR2; 4 h,12%
same,additional TrxR2 peptide modified on a cysteine residue,TrxR2; 4 h,< 1%
